Literature values as cited in US5330766A, “Sustained release pharmaceutical composition” (priority 1989, dated 1994).
Structures can show the parent of a compound that is named as a salt. Where two headings read alike, the source gives them in different places.

Assays:
[1] = not given; remark: listed apart in the source

| SMILES | pKA (first or only value given) | SOLUBILITY (AQUEOUS), in words [1] | other results |
| --- | --- | --- | --- |
| NCCCCCC(=O)O [Aminocaproic acid] | 4.43 | – | pKA (second value): 10.73 |
| CCCC(CCC)C(=O)O[C@H]1C[C@H]2CC[C@@H](C1)[N+]2(C)C [Anisotropine methylbromide] | – | soluble | – |
| CN1CCC(=C2c3ccccc3CCc3cccnc32)CC1 [Azatadine maleate] | 9.3 | very soluble | – |
| C[C@@H](Cc1ccccc1)N(C)Cc1ccccc1 [Benzphetamine hydrochloride] | 6.6 | – | – |
| CCC(C)C1(CC)C(=O)NC(=O)NC1=O (stereo not shown) [Butabarbital sodium] | 7.9 | freely soluble | – |
| CN(C)CCOC(c1ccc(Cl)cc1)c1ccccn1 (stereo not shown) [Carbinoxamine maleate] | 8.1 | – | – |
| O=C(O)c1ccccc1O [Choline salicylate] | – | very soluble | – |
| C[N+]12CCC(CC1)C(OC(=O)C(O)(c1ccccc1)c1ccccc1)C2 (stereo not shown) [Clidinium bromide] | – | soluble | – |
| CCCCCCCCCCCCCCCC(=O)OC1C(SC)OC(C(NC(=O)C2CC(CCC)CN2C)C(C)Cl)C(O)C1O (stereo not shown) [Clindamycin Palmitate HCl] | – | freely soluble | – |
| Cc1onc(-c2ccccc2Cl)c1C(=O)N[C@@H]1C(=O)N2[C@@H]1SC(C)(C)[C@@H]2C(=O)O [Cloxacillin sodium] | 2.7 | – | – |
| COc1cc2c(c(OC)c1OC)-c1ccc(OC)c(=O)cc1[C@@H](NC(C)=O)CC2 [Colchicine] | 1.7 | – | pKA (second value): 12.4 |
| C[C@H](CN1CCOCC1)C(C(=O)N1CCCC1)(c1ccccc1)c1ccccc1 [Dextromoramide tartrate] | 7.1 | – | – |
| CC(C)N(CCC(C(N)=O)(c1ccccc1)c1ccccn1)C(C)C (stereo not shown) [Disopyramide phosphate] | 8.4 | – | – |
| CCC1(C)CC(=O)NC1=O (stereo not shown) [Ethosuximide] | 9.0 | – | – |
| CCNC(C)Cc1cccc(C(F)(F)F)c1 (stereo not shown) [Fenfluramine hydrochloride] | 9.1 | – | – |
| COc1ccc2c3c1O[C@H]1C(=O)CC[C@H]4[C@@H](C2)N(C)CC[C@]314.O=C(O)C(O)C(O)C(=O)O [Hydrocodone bitartrate] | 8.3 | – | – |
| OCCOCCN1CCN(C(c2ccccc2)c2ccc(Cl)cc2)CC1 (stereo not shown) [Hydroxyzine hydrochloride] | 2.6 | – | pKA (second value): 7.0 |
| NNC(=O)c1ccncc1 [Isoniazid] | – | – | pKA: 10.8; pKA (second value): 3.5 |
| Nc1nc2c(c(=O)[nH]1)N(C=O)C(CNc1ccc(C(=O)N[C@@H](CCC(=O)O)C(=O)O)cc1)CN2 (stereo partly shown) [Leucovorin calcium] | 3.1 | very soluble | pKA: 10.4; pKA (second value): 4.8 |
| CN1CCC(CN2c3ccccc3Sc3ccccc32)C1 (stereo not shown) [Methdilazine HCl] | 7.5 | – | – |
| COC(=O)C(c1ccccc1)C1CCCCN1 (stereo not shown) [Methylphenidate hydrochloride] | 8.8 | freely soluble | – |

| SMILES | pKA (first or only value given) | SOLUBILITY (AQUEOUS), in words [1] | other results |
| --- | --- | --- | --- |
| CCC1(CC)C(=O)NCC(C)C1=O (stereo not shown) [Methyprylon] | 12 | – | – |
| CN1CCCC1c1cccnc1 (stereo not shown) [Nicotine] | – | soluble | – |
| CO[C@@H]1[C@@H](OC(N)=O)[C@@H](O)[C@H](Oc2ccc3c(O)c(NC(=O)c4ccc(O)c(CC=C(C)C)c4)c(=O)oc3c2C)OC1(C)C [Novobiocin Sodium] | – | – | pKA (second value): 9.1 |
| CCN(CC)CC#CCOC(=O)C(O)(c1ccccc1)C1CCCCC1 (stereo not shown) [Oxybutynin hydrochloride] | 6.96 | – | – |
| CN(C)C1C(=O)C(C(N)=O)=C(O)C2(O)C(=O)C3=C(O)c4c(O)cccc4C(C)(O)C3C(O)C12 (stereo not shown) [Oxytetracycline HCl] | 3.3 | – | pKA: 9.1; pKA (second value): 7.3 |
| COc1ccc(Cc2nccc3cc(OC)c(OC)cc23)cc1OC [Papaverine hydrochloride] | 6.4 | – | – |
| CC(C)(S)[C@@H](N)C(=O)O [Penicillamine HCl] | – | – | pKA (first or only value given, HCl): 8.0; pKA (second value): 10.8 |
| CC(C)(S)[C@@H](N)C(=O)O [Penicillamine] | 1.8 | – | – |
| CCOC(=O)C1(c2ccccc2)CCN(C)CC1 [Pethidine hydrochloride] | – | very soluble | – |
| C[C@H]1[C@H](c2ccccc2)OCCN1C [Phendimetrazine tartrate] | 7.6 | freely soluble | – |
| CC1NCCOC1c1ccccc1 (stereo not shown) [Phenmetrazine hydrochloride] | 8.4 | – | – |
| CC(COc1ccccc1)N(CCCl)Cc1ccccc1 (stereo not shown) [Phenoxybenzamine hydrochloride] | 4.4 | – | – |
| CC(N)C(O)c1ccccc1 (stereo not shown) [Phenylpropanolamine hydrochloride] | 9 | – | – |
| O=C1NC(=O)C(c2ccccc2)(c2ccccc2)N1 [Phenytoin sodium] | – | soluble | – |
| C[n+]1ccccc1/C=N/O [Pralidoxime chloride] | 8 | – | – |
| CC(C)[N+](C)(CCOC(=O)C1c2ccccc2Oc2ccccc21)C(C)C [Propantheline bromide] | 9.0 | very soluble | – |
| C=CCC1(C(C)CCC)C(=O)NC(=O)NC1=O (stereo not shown) [Secobarbital sodium] | 7.5 | – | – |
| CC(C)(C)NC[C@H](O)COc1nsnc1N1CCOCC1 [Timolol maleate] | 9 | freely soluble | – |
| COc1cc(C(=O)NCc2ccc(OCCN(C)C)cc2)cc(OC)c1OC [Trimethobenzamide hydrochloride] | 8.3 | – | – |
| CN(C)CCN(Cc1ccccc1)c1ccccn1 [Tripelennamine citrate] | 3.9 | – | pKA (second value): 9.0 |
